Patent US20240342316A1, “A PHARMACEUTICAL COMPOSITION FOR IMAGING” (ASTELLAS PHARMA INC., priority 2021, published 2024)

Experiments:
[1] = Phase 1 single ascending IV bolus dose study: plasma and urine pharmacokinetics; conditions: for t1/2, apparent terminal plasma elimination half-life: healthy participants, n = 4, arithmetic mean
Excerpt: The study (ClinicalTrials.gov Identifier: NCT03698305) was a randomized, double-blind, placebo-controlled, sequential ascending IV bolus dose group study conducted at a single center (Covance Clinical Research Unit, Inc.) in the United States.
The study population, 30 participants in all, was comprised of 5 cohorts consisting of 6 healthy volunteers (3 females and 3 males) per cohort. […] The study consisted of a screening period, an investigational period, and a follow-up period (FIG. 1). Following successful screening, participants were admitted to the clinic on study day −1.
After at least 5 of 6 patients in a cohort had completed the study procedure, a Dose-Escalation Committee reviewed all PK and safety data, and decided whether to proceed with dose escalation, stop dose escalation, repeat a dose level, or investigate a lower dose level intermediate between the current and prior doses.
Blood and urine samples were collected over a 24-hour period. Participants were discharged on day 2, returned to the clinic for a follow-up visit on day 7, and the study was completed with a follow-up phone call on day 14. To prevent accidental unblinding should the urine be discolored, catheter and tubing collection bags were covered, and participants were prevented from observing these or the collection vials when changed.
Urine interval sampling was between −1 hour and time of dosing, and between each subsequent consecutive urine sample collection time point.
The safety population comprised all participants who received a single dose of study drug. The PK population comprised safety population participants for which data were available for derivation of ≥1 PK parameter. Pharmacokinetic parameters were calculated by noncompartmental analysis using Phoenix WinNonlin version 8.1 and were summarized by treatment group.

[2] = NIR versus white light; cited from earlier work

Row | Compound | Mean terminal half-life, range across doses ([1]; 0.1 mg to 24 mg single IV bolus) | t1/2, apparent terminal plasma elimination half-life ([1]; single IV bolus 0.1 mg) | t1/2, apparent terminal plasma elimination half-life ([1]; single IV bolus 0.5 mg) | t1/2, apparent terminal plasma elimination half-life ([1]; single IV bolus 2 mg) | t1/2, apparent terminal plasma elimination half-life ([1]; single IV bolus 8 mg) | t1/2, apparent terminal plasma elimination half-life ([1]; single IV bolus 24 mg) | NIRF ureter visualization in first-in-human study [2]
1 | COC1=C(/C=C/C2=[N+](CCC(=O)NCCCO[C@H]3[C@H]4O[C@H]5[C@H](O)[C@@H](O)[C@@H](O[C@H]6[C@H](O)[C@@H](O)[C@@H](O[C@H]7[C@H](O)[C@@H](O)[C@@H](O[C@H]8[C@H](O)[C@@H](O)[C@@H](O[C@H]9[C@H](O)[C@@H](O)[C@@H](O[C@H]%10[C@H](O)[C@@H](O)[C@@H](O[C@@H]([C@@H]3O)[C@@H](CO)O4)O[C@@H]%10CO)O[C@@H]9CO)O[C@@H]8CO)O[C@@H]7CO)O[C@@H]6CO)O[C@@H]5CO)c3ccc4ccccc4c3C2(C)C)CCC/C1=C\C=C1\N(CCC(=O)NCCCO[C@H]2[C@H]3O[C@H]4[C@H](O)[C@@H](O)[C@@H](O[C@H]5[C@H](O)[C@@H](O)[C@@H](O[C@H]6[C@H](O)[C@@H](O)[C@@H](O[C@H]7[C@H](O)[C@@H](O)[C@@H](O[C@H]8[C@H](O)[C@@H](O)[C@@H](O[C@H]9[C@H](O)[C@@H](O)[C@@H](O[C@@H]([C@@H]2O)[C@@H](CO)O3)O[C@@H]9CO)O[C@@H]8CO)O[C@@H]7CO)O[C@@H]6CO)O[C@@H]5CO)O[C@@H]4CO)c2ccc3ccccc3c2C1(C)C [Pudexacianinium] | 2.1 to 3.6 h | 2.24 h | 2.23 h | 2.10 h | 3.58 h | 3.41 h | 
2 | CN(C)c1ccc2nc3ccc(=[N+](C)C)cc-3sc2c1 [methylene blue] |  |  |  |  |  |  | did not provide sufficient optical properties to offer any visualization advantage with NIR over white light
